Common to all, as to format: cell-based
The test system of assay [1] is Rhodococcus erythropolis PR-4. As to the kind of experiment: Treatment of various hydrocarbons: growth and localization of PR-4 in organic solvent/IB medium bilayer culture. Particulars: hydrocarbon 5% (v/v) in IB medium, 28° C., 110 rpm, third day of culturing. As for the experimental part:
(§1) IB liquid medium was prepared as shown below.
(§2) As n-alkanes, n-hexane (C6), n-octane (C8), n-nonane (C9), n-decane (C10), n-undecane (C11), n-dodecane (C12), n-tridecane (C13), n-tetradecane (C14), n-pentadecane (C15), n-hexadecane (C16), n-heptadecane (C17), and n-octadecane (C18) were used.
(§3) As test strains, Rhodococcus erythropolis PR-4 and Rhodococcus rhodochrous S-2 were used.
(§4) On the third day after the start of culturing, the growth status of the test bacteria and sites where the test bacteria had localized were observed. When the test bacteria were present in the organic solvent, they were labeled “inside” and when they were present on the surface of the organic solvent, they were labeled “surface.” The results are shown in Table 1.

For assay [2], the system named is Rhodococcus rhodochrous S-2. As to the kind of experiment: Treatment of various hydrocarbons: growth and localization of S-2 in organic solvent/IB medium bilayer culture. The conditions noted are these: hydrocarbon 5% (v/v) in IB medium, 28° C., 110 rpm, third day of culturing. As for the experimental part: as §1, §2, §3, §4
Assay [3] relates to Rhodococcus erythropolis PR-4. As to the kind of experiment: Investigation of Rhodococcus erythropolis PR-4 adaptation (two-stage culture with different hydrocarbons). More on the design: key: ±: growth is shown at interface of hydrocarbon and IB liquid culture medium; +: growth is shown in hydrocarbon. Particulars: pristane (C19) into dodecane (C12): PR-4 first cultured 3 days with pristane, then with dodecane 5% (v/v); third day.

Take `CC(C)CCCC(C)CCCC(C)CCCCC(C)CCCC(C)CCCC(C)C` (stereo not drawn) [n-squalane, squalane]: the PR-4 growth entry in assay [1] was “+”. For the same compound, in assay [2], the S-2 growth entry is listed as “±”.

Take `CCCCCCCCCCCCCCCC` [n-hexadecane]: the PR-4 growth entry in assay [1] was “+”. For the same compound, the S-2 growth result in assay [2] is “±”.

Consider `CCCCCC` [n-hexane], for which the PR-4 growth entry in assay [1] is “−”. In assay [2], the S-2 growth result is recorded as “−”.

Take `CCCCCCCC` [n-octane]: the PR-4 growth entry in assay [1] is on record as “−”. In addition, the S-2 growth result in assay [2] was “−”.

For `CCCCCCCCCCCC` [n-dodecane], the growth result in assay [3] was “+”. The PR-4 growth result in assay [1] was “±”. In addition, the S-2 growth result in assay [2] is on record as “−”.

Take `CCCCCCCCCC` [n-decane]: the PR-4 growth entry in assay [1] is “±”. In addition, the S-2 growth result in assay [2] is “−”.

As for `CCCCCCCCCCCCCC` [n-tetradecane], the PR-4 growth entry in assay [1] is “+”. Moreover, the S-2 growth entry in assay [2] is given as “±”.
